The subject of experiment [1] is Escherichia coli MG1655. The experiment is classed as cell-based. As for the experimental part: (§1) Escherichia coli MG1655 was grown in Luria-Bertani (LB) broth at 37°C with aeration at 220 rpm in 50-ml tubes. Two hundred microliters of overnight culture was resuspended into 15 ml fresh LB broth, cultured under the same conditions for an additional 2 h, and then used for subsequent assays. Mueller-Hinton (MH) broth was used for the assay of MICs and time-killing curves.
According to a standard protocol ([35]), stock solutions of AMPs were diluted in MH broth and then diluted in 96-well plates with a 2-fold gradient, that is, from 0.25 μg/ml to 128 μg/ml. All the gradients of antibiotics were from 0.02 μg/ml to 50 μg/ml, except that the gradient of ciprofloxacin was from 0.002 μg/ml to 1 μg/ml. Approximately 5 × 10^5 log-phase bacteria were added to each well. A positive control containing MH broth and bacteria and a negative control containing only MH broth were included in each plate, and plates were incubated at 37°C overnight.

The test system of experiment [2] is Escherichia coli MG1655. The experiment in a line: Killing curves fitted to the Hill function (pharmacodynamic parameters). The experiment is classed as cell-based. The note with it: brackets = 95% confidence interval. How it is done: as §1
Thus, Loewe additivity would result in a MIC of any one combination equal to the MIC of the individual drugs (see equations 5 and 6). Thus, 21 two-AMP combinations and 20 three-AMP combinations were generated. An AMP(s) was diluted, starting with 100× MIC, in a 96-well plate to form a 2-fold gradient of concentrations, and 2 × 10^6 log-phase bacteria were added to a total volume of 100 μl. The plates were incubated at 37°C. Killing was assessed within 1 h, as killing by AMPs is very fast ([36], [37]). Ten microliters of a mixture of AMPs and bacteria was taken out every 20 min and then immediately diluted in saline solution and plated on the solid agar plates. These solid agar plates were transferred into a 37°C incubator and cultured overnight for CFU determination. The limit of detection in our system is 100 CFUs.
To model the killing curve, the relationship between the concentration of AMP(s) and the killing and/or growth rate of exposed bacteria, we used a Hill function ([26]): (1) μ(a)=Emax (a/EC50)^κ/1+(a/EC50)^κ Here, μ(a) is the killing rate at a given concentration of AMP(s); a is a given concentration; Emax is the maximal killing rate of the given AMP(s). κ is the Hill coefficient. We then defined growth rate ψ(a) as follows: (2) ψ(a)=ψmax −μ(a) Here, ψmax is the maximal growth rate of bacteria without AMP(s). The maximum effect of AMP(s) is defined by (3) Emax =ψmax −ψmin Thus, the effect of AMP(s) in a given concentration, μ(a), can be rewritten as (4) μ(a)=(ψmax −ψmin )(a/zMIC)^κ/(a/zMIC)^κ−ψmin /ψmax zMIC is the estimated MIC. Growth rate and killing rate of bacteria are estimated from the time-kill curves as the change of CFU over time by using generalized linear regression. […]

Setting [3] is: E. coli MG1655, MH broth, 96-well plates, 2-fold gradient 0.25 to 128 μg/ml, approx. 5 × 10^5 log-phase bacteria per well, 37°C overnight.

Converted amounts (≈) assume the structure as drawn. Like-named read-outs stand apart in the source and are kept apart here. Ends that are not written are not given here.

Regarding “GIGKFLKKAKKFGKAFVKILKK-NH2 [Pex, pexiganan]”, in experiment [1] (setting [3]), the MIC came out at 2 µg/mL.
Molecule `CC[C@H](C)[C@H](N)C(=O)N[C@@H](CC(C)C)C(=O)N1CCC[C@H]1C(=O)N[C@@H](Cc1c[nH]c2ccccc12)C(=O)N[C@@H](CCCCN)C(=O)N[C@@H](Cc1c[nH]c2ccccc12)C(=O)N1CCC[C@H]1C(=O)N[C@@H](Cc1c[nH]c2ccccc12)C(=O)N[C@@H](Cc1c[nH]c2ccccc12)C(=O)N1CCC[C@H]1C(=O)N[C@@H](Cc1c[nH]c2ccccc12)C(=O)N[C@@H](CCCNC(=N)N)C(=O)N[C@@H](CCCNC(=N)N)C(N)=O` [Ind, Indolicidin] yielded an MIC in experiment [1] (setting [3]) of 4 µg/mL (≈ 2.1 µM).
“KWKLFKKIEKVGQNIRDGIIKAGPAVAVVGQATQIAK-NH2 [Cec, Cecropin A]” displayed an MIC in experiment [1] (setting [3]) of 1 µg/mL. Besides, the “κ (lower,upper)” value in experiment [2] (Hill coefficient (steepness of pharmacodynamic curve), Hill function fit (MCMC) of time-kill data, E. coli MG1655, 37°C, within 1 h) is 6.02(5.17,6.84). Moreover, the “zMIC (lower,upper)” value in experiment [2] (estimated MIC from Hill function fit (MCMC) of time-kill data, 2-fold gradient from 100× MIC, 2 × 10^6 log-phase bacteria in 100 μl, 37°C, CFU every 20 min within 1 h, combinations 1:1 or 1:1:1 by volume) was 0.32(0.28,0.37) times of original MIC. Moreover, the “ψmin (lower,upper)” value in experiment [2] (minimal growth rate of bacteria, Hill function fit (MCMC) of time-kill data, E. coli MG1655, 37°C, within 1 h) is on record as -5.83(-5.89,-5.77).
For the molecule GNNRPVYIPQPRPPHPRL [Api, Apidaecin IB], the minimal inhibitory concentration (MIC) in experiment [1] (setting [3]) is 4 µg/mL.
Molecule FKRIVQRIKDFLR [LL, LL 17-29] came in with an MIC in experiment [1] (MG1655, 2 h) of 16 µg/mL.

The values above are taken from article PMC4775937, “Combination Effects of Antimicrobial Peptides” (Antimicrobial Agents and Chemotherapy, 2016).
